Tests used:
SK-MEL-5 = assay: NCI 60-cell line growth inhibition assay: SK-MEL-5; assay type: cell-based; details: Homo sapiens
OVCAR-4 = assay: NCI 60-cell line growth inhibition assay: OVCAR-4; assay type: cell-based; details: Homo sapiens
NCI-H226 = assay type: cell-based; details: Homo sapiens, Non-Small Cell Lung
From the text: (§1) The following data in Table 4 summarize the growth inhibition properties of several compounds of the present invention against 60-human transformed cell lines.

DU-145 = assay: NCI 60-cell line growth inhibition assay: DU-145; assay type: cell-based; details: Homo sapiens
LOX IMVI = assay: NCI 60-cell line growth inhibition assay: LOX IMVI; assay type: cell-based; details: Homo sapiens
RXF 393 = assay: NCI 60-cell line growth inhibition assay: RXF 393; assay type: cell-based; details: Homo sapiens
HCC-2998 = assay: NCI 60-cell line growth inhibition assay: HCC-2998; assay type: cell-based; details: Homo sapiens, HCC 2998
SR = assay: NCI 60-cell line growth inhibition assay: SR; assay type: cell-based; details: Homo sapiens, Leukemia
From the text: as §1

SK-MEL-2 = assay: NCI 60-cell line growth inhibition assay: SK-MEL-2; assay type: cell-based; details: Homo sapiens
HT29 = assay: NCI 60-cell line growth inhibition assay: HT29; assay type: cell-based; details: Homo sapiens, HT-29
NCI-H460 = assay type: cell-based; details: Homo sapiens
COLO 205 = assay: NCI 60-cell line growth inhibition assay: COLO 205; assay type: cell-based; details: Homo sapiens
UACC-62 = assay: NCI 60-cell line growth inhibition assay: UACC-62; assay type: cell-based; details: Homo sapiens
RPMI-8226 = assay: NCI 60-cell line growth inhibition assay: RPMI-8226; assay type: cell-based, human
From the text: as §1

K-562 = assay: NCI 60-cell line growth inhibition assay: K-562; assay type: cell-based; details: Homo sapiens, K562
HL-60(TB) = assay: cells; assay type: cell-based; details: Homo sapiens, Leukemia
SNB-75 = assay: NCI 60-cell line growth inhibition assay: SNB-75; assay type: cell-based; details: Homo sapiens
T-47D = assay: NCI 60-cell line growth inhibition assay: T-47D; assay type: cell-based; details: Homo sapiens, T47D, Breast
From the text: as §1

OVCAR-5 = assay: NCI 60-cell line growth inhibition assay: OVCAR-5; assay type: cell-based; details: Homo sapiens
SK-MEL-28 = assay: NCI 60-cell line growth inhibition assay: SK-MEL-28; assay type: cell-based; details: Homo sapiens, Melanoma
From the text: as §1

NCI-H23 = assay type: cell-based; details: Homo sapiens
MALME-3M = assay: NCI 60-cell line growth inhibition assay: MALME-3M; assay type: cell-based; details: Homo sapiens, Malme-3M
BT-549 = assay: NCI 60-cell line growth inhibition assay: BT-549; assay type: cell-based; details: Homo sapiens
UO-31 = assay: NCI 60-cell line growth inhibition assay: UO-31; assay type: cell-based; details: Homo sapiens
[1] = Homo sapiens, Leukemia, RPMI-8226

SMILES	GI50 (SK-MEL-5)	GI50 (OVCAR-4)	GI50 (NCI-H226)	GI50 (DU-145)	GI50 (LOX IMVI)	GI50 (RXF 393)	GI50 (HCC-2998)	GI50 (SK-MEL-2)	GI50 (HT29)	GI50 (NCI-H460)	GI50 (COLO 205)	GI50 (UACC-62)	GI50 (RPMI-8226; [1])	GI50 (K-562)	GI50 (HL-60(TB))	GI50 (SNB-75)	GI50 (T-47D)	GI50 (OVCAR-5)	GI50 (SK-MEL-28)	GI50 (NCI-H23)	other results
CCCC(=O)/C=C/c1ccc2[nH]c3c(c2c1)CCN1C[C@H](C[C@@](O)(CC)C1)C[C@]3(C(=O)OC)c1cc2c(cc1OC)N(C)[C@H]1[C@@](O)(C(=O)OC)[C@H](OC(C)=O)[C@]3(CC)C=CCN4CC[C@]21[C@@H]43 [Example 29, 12′-(3-oxohex-1-enyl)vinblastine]	420 nM	21.1 nM	< 10 nM	15.2 nM	< 10 nM	268 nM	< 10 nM	9770 nM	< 10 nM	176 nM	< 10 nM	< 10 nM	14.1 nM	< 10 nM	244 nM						GI50 (SR): 396 nM
CCC1=C[C@H]2CN(CCc3c([nH]c4ccc(Br)cc34)[C@@](C(=O)OC)(c3cc4c(cc3OC)N(C)[C@H]3[C@@](O)(C(=O)OC)[C@H](OC(C)=O)[C@]5(CC)C=CCN6CC[C@]43[C@@H]65)C2)C1 [Example 97, 12′-bromoanhydro vinblastine]	< 10 nM		< 10 nM	< 10 nM	< 10 nM		< 10 nM		< 10 nM	< 10 nM	< 10 nM	< 10 nM	< 10 nM	< 10 nM	< 10 nM	12200 nM	19400 nM	12.4 nM	3310 nM	325 nM	GI50 (RPMI-8226; Renal, RPMI-8226 (last line of Table 4, repeats the Leukemia line)): < 10 nM; GI50 (MALME-3M): 1420 nM
CC[C@]1(O)C[C@H]2CN(CCc3c([nH]c4ccc(C#Cc5ccccc5)cc34)[C@@](C(=O)OC)(c3cc4c(cc3OC)N(C)[C@H]3[C@@](O)(C(=O)OC)[C@H](OC(C)=O)[C@]5(CC)C=CCN6CC[C@]43[C@@H]65)C2)C1 [Example 19, 12′-(2-phenylethynyl) vinblastine]	757 nM	1550 nM		2460 nM	> 100000 nM	619 nM	182 nM	2290 nM	423 nM	353 nM	1190 nM	2040 nM	252 nM			530 nM	4750 nM	1780 nM	1270 nM	541 nM	GI50 (BT-549): 1890 nM; GI50 (UO-31): 2200 nM; GI50 (MALME-3M): 254 nM

From patent US7745619B2, “Vinca derivatives” (priority 2003, dated 2010)
